# In PMC3974779, “Pterostilbene-Isothiocyanate Conjugate Suppresses Growth of Prostate Cancer Cells Irrespective of Androgen Receptor Status” (PLoS ONE, 2014):
# Tests used:
# hAR in PC-3 cells = biological target: T1, hAR in PC-3 cells (Homo sapiens, UniProt P10275); experiment: AR transactivation luciferase assay (pSG5-hAR + pMMTV-luc); type: cell-based; details: 10 nM DHT
# T1 construct: full length hAR in pSG5 expression vector; expressed in transfected cells; host or cells: PC-3 (AR-negative)
# T1 sequence (P10275 1-920): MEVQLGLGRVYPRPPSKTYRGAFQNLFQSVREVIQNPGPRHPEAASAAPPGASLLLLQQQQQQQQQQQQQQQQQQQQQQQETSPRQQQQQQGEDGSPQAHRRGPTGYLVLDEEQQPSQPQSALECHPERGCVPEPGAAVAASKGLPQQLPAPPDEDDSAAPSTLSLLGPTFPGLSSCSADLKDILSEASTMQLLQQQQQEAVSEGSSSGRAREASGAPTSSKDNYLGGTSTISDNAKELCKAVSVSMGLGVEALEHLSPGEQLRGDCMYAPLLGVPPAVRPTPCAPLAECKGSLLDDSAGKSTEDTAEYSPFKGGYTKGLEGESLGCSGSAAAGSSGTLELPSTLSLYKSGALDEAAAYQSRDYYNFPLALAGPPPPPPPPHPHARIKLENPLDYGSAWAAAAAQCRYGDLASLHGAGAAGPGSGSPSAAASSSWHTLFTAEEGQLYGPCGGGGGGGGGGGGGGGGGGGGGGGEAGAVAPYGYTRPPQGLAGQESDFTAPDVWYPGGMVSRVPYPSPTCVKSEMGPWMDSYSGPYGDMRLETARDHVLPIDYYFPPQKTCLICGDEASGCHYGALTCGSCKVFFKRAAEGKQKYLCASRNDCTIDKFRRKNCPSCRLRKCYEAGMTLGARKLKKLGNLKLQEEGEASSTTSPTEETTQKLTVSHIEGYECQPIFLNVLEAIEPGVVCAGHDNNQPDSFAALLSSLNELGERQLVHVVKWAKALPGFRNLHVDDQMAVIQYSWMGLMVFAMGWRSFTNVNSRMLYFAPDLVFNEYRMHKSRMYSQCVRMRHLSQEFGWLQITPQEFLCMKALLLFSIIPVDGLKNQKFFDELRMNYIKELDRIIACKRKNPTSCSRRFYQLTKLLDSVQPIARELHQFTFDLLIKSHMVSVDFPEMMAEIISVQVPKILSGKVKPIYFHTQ
# Procedure: The LNCaP cells were grown and transiently transfected with pMMTV-neomycin-luciferase plasmid (300 ng/10^5 cells) in RPMI media supplemented with 10% FBS using polyfect transfection reagent (Qiagen, CA, USA) according to manufacturer’s instructions. Then, 24 h after transfection, the cell culture media were changed with media containing 5% charcoal-stripped FBS to reduce the contaminating steroids from the serum and incubated for an additional day before initiating the treatments. In case of PC-3 cells, they were similarly transfected, but in addition to pMMTV-neomycin-luciferase construct, they were also transfected with pSG5-hAR-puro plasmid (full length hAR in pSG5 expression vector) in the ratio of 5∶1 as indicated above. For experiments involving co-regulators, 50 ng of co-activator plasmids (25 ng each of GRIP-1 and SRC-1) along with pMMTV-neo-luc (250 ng) were transfected to LNCaP cells. To evaluate the transfection efficiency, 500 ng/105 cells of the SV40 promoter-Renilla luciferase (pRL-SV40) vector (Promega Madison, USA) were co-transfected as internal control. […] Each experimental point was performed in triplicate and varied by less than 10%. The values of luciferase for each lysates were normalized to the Renilla luciferase activity.
# [1] = tested on: AR gene expression in LNCaP cells; experiment: RT-PCR of AR expression; type: cell-based, human; details: for reduction of DHT induced AR transcription: 10 nM DHT
# Procedure: Total RNA was extracted from the treated cells using RNA isolation kit obtained from Genei (Bangalore, India). The extracted RNA samples were then quantified and equal amount of the individual treatments was transcribed with the help of an RT - PCR kit from Genei (Bangalore, India) according to the manufacturer’s instruction. PCR was performed by denaturing at 94°C for 60 s, annealing at various temperatures (depending on primer pairs used) for 45 s and extension at 72°C for 2 min followed by the number of cycles for amplification. Primers for Bcl-2, Bcl-xL, Bax, AR and β-Actin were designed with the help of Primer 3 software and standardized in the laboratory. The PCR products were then separated on 2% agarose gel and visualized in a gel documentation system (Bio Rad, USA). The intensity of the bands on agarose gels were analyzed using ImageJ 1.43 software (NIH, USA) and normalized with respect to β-actin PCR products. Each of the RT-PCR was carried out three times. Table S1 presents the primer sequence, product size, annealing temperature, and number of cycles used for all primers.
# GRIP-1 in LNCaP cells = experiment: Immunoblot of AR co-activators; type: cell-based, human
# Procedure: (§1) The whole-cell lysates were prepared as described previously in immunoprecipitation (IP) buffer containing 50 mM Tris-HCl (pH 8.0), 150 mM NaCl, 5 mM EDTA, and 1% Triton X-100. Protein aliquots of 500 μg were then incubated overnight at 4°C using 2 μg of antibody directed against AR. The Protein A-Cl Agarose beads were then added and further incubated for 6 h at 4°C. The immunoprecipitates were washed four times with the IP buffer and the immunocomplexes were recovered by boiling in SDS sample buffer. Finally the western blot was carried out using anti-AR, anti-SRC-1 and anti-GRIP-1 antibodies (Santa Cruz, CA, USA). For western blot analysis, the cell lysates were prepared after harvesting them in lysis buffer. About 40 μg of total protein was electrophoresed by 12% SDS-PAGE, and the western blotting was carried out using standard protocol. In brief, the analyzed proteins were transferred to nylon membranes. The blots were then blocked with TBST buffer (20 mM Tris-Cl, pH 7.5, 150 mM sodium chloride, 0.05% Tween-20) containing 5% skim milk powder. They were then washed with TBST buffer and incubated overnight at 4°C with the same buffer containing appropriate amounts of primary antibodies: caspase-3, Bax, Bcl-2, Akt, p-Akt, ERK, p-ERK, AR, SRC-1, GRIP-1 (1∶500) and β-actin (1∶1000). The blots were then washed and incubated with anti-rabbit secondary antibody (1∶20,000) conjugated with horseradish peroxidase (HRP). Color development was performed in the dark by using an ECL kit (Amersham, GE Healthcare, Buckinghamshire, UK). The developed blots were subjected to densitometric analysis by ImageJ 1.43 software (NIH, USA) using β-actin as internal control.
# SRC-1 in LNCaP cells = experiment: Immunoblot of AR co-activators; type: cell-based, human
# Procedure: as §1
smiles,measurement,setting,value
"COc1cc(/C=C/c2ccc(O)c(/C=N/NC(N)=S)c2)cc(OC)c1 [conjugate, Pterostilbene-isothiocyanate conjugate]",reduction of DHT-mediated luciferase activity,"hAR in PC-3 cells; PC-3, 5 μM",19%
same,reduction of DHT-mediated luciferase activity,"hAR in PC-3 cells; PC-3, 10 μM",31%
same,reduction of DHT-mediated luciferase activity,"hAR in PC-3 cells; PC-3, 20 μM",63%
same,reduction of DHT-mediated luciferase activity,"hAR in PC-3 cells; PC-3, 30 μM",70%
same,reduction of DHT-mediated luciferase activity,"hAR in PC-3 cells; PC-3, 40 μM",80%
same,reduction of DHT induced AR transcription,[1]; 10 μM,about 1.2 fold
same,reduction of DHT induced AR transcription,[1]; 20 μM,~1.3 fold
same,reduction of DHT induced AR transcription,[1]; 40 μM,~1.4 fold
same,effect on expression of AR gene,"[1]; below 40 μM, absence of 10 nM DHT, RT-PCR",no significant effects
same,reduction of GRIP-1 level,GRIP-1 in LNCaP cells; 10 μM,1.7 folds
same,reduction of GRIP-1 level,GRIP-1 in LNCaP cells; 20 μM,2.6 folds
same,decrease in expression of SRC-1 protein,SRC-1 in LNCaP cells; 10 μM,1.4 folds
same,decrease in expression of SRC-1 protein,SRC-1 in LNCaP cells; 20 μM,2.6 folds
